Tests used:
[1] = test system: D. immitis microfilariae; assay: Dirofilaria immitis, microfilariae (DiMF) in vitro motility assay; format: cell-based; details: for minimal effective concentration: Dirofilaria immitis, 72 h, read-out: DiMF minimally effective dose (MEC)
[2] = test system: Haemonchus contortus L3; assay: microbe, parasite or virus in culture; format: cell-based; details: for minimal effective concentration: Haemonchus contortus, 96 h, read-out: HcL3 Minimal Effective Concentration (MEC)

Compound	minimal effective concentration [1] [µM]	minimal effective concentration [2] [µM]	DiMF minimally effective dose (MEC) ([1]; decrease in microfilariae motility by subjective visual assessment, observed at 72 hours) [µM]	HcL3 Minimal Effective Concentration (MEC) [2] [µM]
O=C(NCc1ccnc(Cl)c1)n1c2c(c3c(OC(F)(F)F)cccc31)CN(C/C=C/c1ccc(F)cc1)CC2 [Example 357, (E)-N-((2-chloropyridin-4-yl)methyl)-2-(3-(4-fluorophenyl)allyl)-9-(trifluoromethoxy)-1,2,3,4-tetrahydro-5H-pyrido[4,3-b]indole-5-carboxamide]	3.3	10	–	–
COc1ccc(/C=C/CN2CCc3c(c4ccc(Cl)cc4n3C(=O)NCc3ccnc(Cl)c3)C2)cc1 [Example 219, (E)-7-chloro-N-((2-chloropyridin-4-yl)methyl)-2-(3-(4-methoxyphenyl)allyl)-1,2,3,4-tetrahydro-5H-pyrido[4,3-b]indole-5-carboxamide]	3.3	0.5	–	–
O=C(NCc1ccnc(Cl)c1)n1c2c(c3ccc(OC(F)(F)F)cc31)CN(C/C=C/c1ccc(F)cc1F)CC2 [Example 347, (E)-N-((2-chloropyridin-4-yl)methyl)-2-(3-(2,4-difluorophenyl)allyl)-7-(trifluoromethoxy)-1,2,3,4-tetrahydro-5H-pyrido[4,3-b]indole-5-carboxamide]	2.4	2.4	–	–
N#Cc1ccc(/C=C/CN2CCc3c(c4ccc(Br)cc4n3C(=O)NCc3ccnc(Cl)c3)C2)cc1 [Example 441, (E)-7-bromo-N-((2-chloropyridin-4-yl)methyl)-2-(3-(4-cyanophenyl)allyl)-1,2,3,4-tetrahydro-5H-pyrido[4,3-b]indole-5-carboxamide]	4.4	> 100	–	–
CSc1cc2c3c(n(C(=O)NCc4ccnc(Cl)c4)c2cc1C#N)CCN(C/C=C/c1ccc(Cl)cc1)C3 [Example 491, (E)-2-(3-(4-chlorophenyl)allyl)-N-((2-chloropyridin-4-yl)methyl)-7-cyano-8-(methylthio)-1,2,3,4-tetrahydro-5H-pyrido[4,3-b]indole-5-carboxamide]	18.2	1	–	–
Cc1ccc2c3c(n(C(=O)NCc4ccnc(Cl)c4)c2c1)CCN(C/C=C/c1ccc(C(F)(F)F)cc1)C3 [Example 150, (E)-N-((2-chloropyridin-4-yl)methyl)-7-methyl-2-(3-(4-(trifluoromethyl)-phenyl)allyl)-1,2,3,4-tetrahydro-5H-pyrido[4,3-b]indole-5-carboxamide]	10	3.3	–	–
O=C(NCc1ccc(F)cc1)n1c2c(c3cc(F)ccc31)CN(C/C=C/c1ccc(Cl)cc1)CC2 [Example 170, (E)-2-(3-(4-chlorophenyl)allyl)-8-fluoro-N-(4-fluorobenzyl)-1,2,3,4-tetrahydro-5H-pyrido[4,3-b]indole-5-carboxamide]	1	> 100	–	–
N#Cc1ccc2c(c1)c1c(n2C(=O)NCc2ccnc(Cl)c2)CCN(C/C=C/c2ccc(F)cc2Br)C1 [Example 94, (E)-2-(3-(2-bromo-4-fluorophenyl)allyl)-N-((2-chloropyridin-4-yl)methyl)-8-cyano-1,2,3,4-tetrahydro-5H-pyrido[4,3-b]indole-5-carboxamide]	> 100	0.1	–	–
N#Cc1ccc(/C=C/CN2CCc3c(c4cc(OC(F)(F)F)ccc4n3C(=O)NCc3ccnc(Cl)c3)C2)cc1F [Example 386, (E)-N-((2-chloropyridin-4-yl)methyl)-2-(3-(4-cyano-3-fluorophenyl)allyl)-8-(trifluoromethoxy)-1,2,3,4-tetrahydro-5H-pyrido[4,3-b]indole-5-carboxamide]	3.3	0.2	–	–
O=C(NCc1ccnc(Cl)c1)n1c2c(c3ccc(OC(F)(F)F)cc31)CN(C/C=C/c1ccc(F)c(Cl)c1)CC2 [Example 348, (E)-2-(3-(3-chloro-4-fluorophenyl)allyl)-N-((2-chloropyridin-4-yl)methyl)-7-(trifluoromethoxy)-1,2,3,4-tetrahydro-5H-pyrido[4,3-b]indole-5-carboxamide]	24.5	1	–	–
Cc1cc2c3c(n(C(=O)NCc4ccnc(Cl)c4)c2cc1C(F)(F)F)CCN(C/C=C/c1ccc(Cl)cc1)C3 [Example 330, (E)-2-(3-(4-chlorophenyl)allyl)-N-((2-chloropyridin-4-yl)methyl)-8-methyl-7-(trifluoromethyl)-1,2,3,4-tetrahydro-5H-pyrido[4,3-b]indole-5-carboxamide]	> 100	0.5	–	–
O=C(NCc1ccnc(Cl)c1)n1c2c(c3ccc(Cl)cc31)CN(C/C=C/c1ccc(OC(F)(F)F)cc1)CC2 [Example 221, (E)-7-chloro-N-((2-chloropyridin-4-yl)methyl)-2-(3-(4-(trifluoromethoxy)-phenyl)allyl)-1,2,3,4-tetrahydro-5H-pyrido[4,3-b]indole-5-carboxamide]	3.3	> 100	–	–
N#Cc1ccc(/C=C/CN2CCc3c(c4ccc(Cl)cc4n3C(=O)NCc3ccnc(Cl)c3)C2)cc1 [Example 212, (E)-7-chloro-N-((2-chloropyridin-4-yl)methyl)-2-(3-(4-cyanophenyl)allyl)-1,2,3,4-tetrahydro-5H-pyrido[4,3-b]indole-5-carboxamide]	> 100	1	–	–
Cc1cccc2c1c1c(n2C(=O)NCc2ccnc(Cl)c2)CCN(C/C=C/c2ccc(Cl)cc2)C1 [Example 147, (E)-2-(3-(4-chlorophenyl)allyl)-N-((2-chloropyridin-4-yl)methyl)-9-methyl-1,2,3,4-tetrahydro-5H-pyrido[4,3-b]indole-5-carboxamide]	10	2.8	–	–
N#Cc1ccc2c3c(n(C(=O)NCc4ccnc(Cl)c4)c2c1)CCN(C/C=C/c1ccc(Br)c(F)c1F)C3 [Example 14, (E)-2-(3-(4-bromo-2,3-difluorophenyl)allyl)-N-((2-chloropyridin-4-yl)methyl)-7-cyano-1,2,3,4-tetrahydro-5H-pyrido[4,3-b]indole-5-carboxamide]	> 100	0.5	–	–
O=C(NCc1ccnc(F)c1)n1c2c(c3c(C(F)(F)F)cc(F)cc31)CN(C/C=C/c1ccc(Cl)cc1)CC2 [Example 326, (E)-2-(3-(4-chlorophenyl)allyl)-7-fluoro-N-((2-fluoropyridin-4-yl)methyl)-9-(trifluoromethyl)-1,2,3,4-tetrahydro-5H-pyrido[4,3-b]indole-5-carboxamide]	10	7.6	–	–
O=C(NCc1ccnc(Cl)c1)n1c2c(c3ccc(OC(F)(F)F)cc31)CN(C/C=C/c1ccc(C(F)(F)F)cn1)CC2 [Example 342, (E)-N-((2-chloropyridin-4-yl)methyl)-7-(trifluoromethoxy)-2-(3-(5-(trifluoromethyl)pyridin-2-yl)allyl)-1,2,3,4-tetrahydro-5H-pyrido[4,3-b]indole-5-carboxamide]	10	1.8	–	–
O=C(NCc1cnc(Cl)s1)n1c2c(c3ccc(OC(F)(F)F)cc31)CN(C/C=C/c1ccc(Cl)cc1)CC2 [Example 382, (E)-2-(3-(4-chlorophenyl)allyl)-N-((2-chlorothiazol-5-yl)methyl)-7-(trifluoromethoxy)-1,2,3,4-tetrahydro-5H-pyrido[4,3-b]indole-5-carboxamide]	10	3.3	–	–
O=C(NCc1ccnc(F)c1)n1c2c(c3cc(F)c(Cl)cc31)CN(C/C=C/c1cc(F)c(F)c(F)c1)CC2 [Example 315, (E)-7-chloro-8-fluoro-N-((2-fluoropyridin-4-yl)methyl)-2-(3-(3,4,5-trifluorophenyl)allyl)-1,2,3,4-tetrahydro-5H-pyrido[4,3-b]indole-5-carboxamide]	5.7	1	–	–
N#Cc1ccc2c3c(n(C(=O)NCc4ccnc(C(F)(F)F)c4)c2c1)CCN(C/C=C/c1ccc(Cl)c(F)c1)C3 [Example 60, (E)-2-(3-(4-chloro-3-fluorophenyl)allyl)-7-cyano-N-((2-(trifluoromethyl)pyridin-4-yl)methyl)-1,2,3,4-tetrahydro-5H-pyrido[4,3-b]indole-5-carboxamide]	13.5	4.4	–	–
O=C(NCc1ccnc(F)c1)n1c2c(c3cc(Cl)ccc31)CN(C/C=C/c1ccc(F)cc1F)CC2 [Example 257, (E)-8-chloro-2-(3-(2,4-difluorophenyl)allyl)-N-((2-fluoropyridin-4-yl)methyl)-1,2,3,4-tetrahydro-5H-pyrido[4,3-b]indole-5-carboxamide]	5.7	0.2	–	–
(E)-8-cyano-2-(3-(2,4-difluorophenyl)allyl)-N-((2-(trifluoromethyl)pyridin-4-yl)methyl)-1,2,3,4-tetrahydro-5H-pyrido[4,3-b]indole-5-carboxamide [Example 129]	–	–	3.5	0.05
O=C(NCc1ccnc(Cl)c1)n1c2c(c3cc(Br)c(OC(F)(F)F)cc31)CN(C/C=C/c1ccc(Cl)cc1)CC2 [Example 492, (E)-8-bromo-2-(3-(4-chlorophenyl)allyl)-N-((2-chloropyridin-4-yl)methyl)-7-(trifluoromethoxy)-1,2,3,4-tetrahydro-5H-pyrido[4,3-b]indole-5-carboxamide]	0.5	1.8	–	–
N#Cc1ccc2c3c(n(C(=O)NCc4ccnc(F)c4)c2c1)CCN(C/C=C/c1ccc(Cl)cc1)C3 [Example 55, (E)-2-(3-(4-chlorophenyl)allyl)-7-cyano-N-((2-fluoropyridin-4-yl)methyl)-1,2,3,4-tetrahydro-5H-pyrido[4,3-b]indole-5-carboxamide]	10	> 100	–	–
